Test results as given in PubChem BioAssay (NCI).
Where “and” joins values, the source holds several entries; their conditions need not be identical. Identical values can stand only once.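 Where inhibition never reached the appropriate level, the endpoint shown equals the highest concentration tested. Otherwise, values were interpolated linearly from a five-concentration, 48-hour dose response in 96-well plates. GI50 is the concentration that inhibits growth by half. Definition used: TGI = concentration required for complete inhibition of growth.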

Experiments:
Test in all cases: inhibition of tumour cell growth, NCI panel, 48 h
786-0 renal = tested on: 786-0 renal
A498 renal = tested on: A498 renal
ACHN renal = tested on: ACHN renal
DU-145 prostate = tested on: DU-145 prostate
HCT-116 colon = tested on: HCT-116 colon
HS 578T breast = tested on: HS 578T breast
MOLT-4 leukemia = tested on: MOLT-4 leukemia
NCI-H226 lung = tested on: NCI-H226 lung
NCI/ADR-RES ovarian = tested on: NCI/ADR-RES ovarian
UACC-257 melanoma = tested on: UACC-257 melanoma

| Compound | GI50 (786-0 renal) | TGI (786-0 renal) | GI50 (A498 renal) | TGI (A498 renal) | GI50 (ACHN renal) | TGI (ACHN renal) | GI50 (DU-145 prostate) | TGI (DU-145 prostate) | GI50 (HCT-116 colon) | TGI (HCT-116 colon) | GI50 (HS 578T breast) | TGI (HS 578T breast) | GI50 (MOLT-4 leukemia) | TGI (MOLT-4 leukemia) | GI50 (NCI-H226 lung) | TGI (NCI-H226 lung) | GI50 (NCI/ADR-RES ovarian) | TGI (NCI/ADR-RES ovarian) | GI50 (UACC-257 melanoma) | TGI (UACC-257 melanoma) |
| --- | --- | --- | --- | --- | --- | --- | --- | --- | --- | --- | --- | --- | --- | --- | --- | --- | --- | --- | --- | --- |
| COc1cc2c3c(n(CCCNCCCN)c(=O)c2cc1OC)-c1cc2c(cc1C3=O)OCO2 | 2.83 µM | 14.2 µM | 18 µM | 35.6 µM | 3.14 µM | 13.7 µM | 3.08 µM | 13.4 µM | 1.34 µM | 5.32 µM | 6.28 µM | 42.8 µM | 0.244 µM | 0.688 µM | 2.21 µM | 8.45 µM | 22.9 µM | 98.7 µM | 7.31 µM | 23 µM |
| CC[C@H](C)[C@H](NC(=O)c1cccn1C)C(=O)N(C)[C@H](C[C@@H](OC(C)=O)c1nc(C(=O)N[C@@H](Cc2ccccc2)C[C@H](C)C(=O)OC)cs1)C(C)C | 0.172 µM | > 15.8 µM | 0.0722 µM | 7.06 µM | 0.502 µM | > 33.3 µM | 0.348 µM | > 33.3 µM | 0.127 µM | > 11.3 µM | 0.226 µM | > 31.2 µM | 0.429 µM | > 33.3 µM | 1.17 µM | > 33.3 µM | 1.2 µM | > 33.3 µM | 18.2 µM | > 33.3 µM |
| C[N+](C)=c1ccc2nc3c(cc(NCCCNc4cc5oc6cc(=[N+](C)C)ccc-6nc5c5ccccc45)c4ccccc43)oc-2c1 | 4.66 µM | 43.4 µM | 19.1 µM | 46.9 µM | 2.17 µM | 11.3 µM | 1.53 µM | 2.91 µM | 1.95 µM | 5.79 µM | 7.22 µM | 45.6 µM | 3 µM | 25 µM | 22.1 µM | 63.7 µM | 6.63 µM | > 100 µM | 4.34 µM | 16.3 µM |
| CC(SCc1ccccc1)C(=O)O (centres undefined) | – | > 100 µM | – | > 100 µM | – | > 100 µM | – | > 100 µM | – | > 100 µM | – | > 100 µM | – | > 100 µM | – | > 100 µM | – | > 100 µM | – | > 100 µM |
| COc1ccc(S(=O)(=O)N(C(C)=O)c2ccccc2/C=C/c2cc[n+]([O-])cc2)cc1 | 1.67 µM | > 10 µM | 0.209 µM | > 2.8 µM | 2.36 µM | > 10 µM | 0.813 µM | > 10 µM | 0.542 µM | > 10 µM | 0.404 µM | > 10 µM | 1.25 µM | > 10 µM | 2.48 µM | > 10 µM | 2.51 µM | > 10 µM | – | > 10 µM |
| CNC(=O)c1cncc(/C=C/c2ccccc2Cl)c1 | > 25 µM | > 25 µM | > 25 µM | > 25 µM | > 25 µM | > 25 µM | > 25 µM | > 25 µM | > 25 µM | > 25 µM | 24.5 µM | > 25 µM | > 25 µM | > 25 µM | > 25 µM | > 25 µM | > 25 µM | > 25 µM | > 25 µM | > 25 µM |
| Nc1ccc(/C=C/c2ccc3cccnc3c2)cc1 | – | > 100 µM | – | > 100 µM | – | > 100 µM | – | > 100 µM | – | > 100 µM | – | > 100 µM | – | > 100 µM | – | > 100 µM | – | > 100 µM | – | > 100 µM |
| C=C1C(=O)O[C@H]2C[C@@H]1C(=O)CC(C)CCCC(C)=CCC[C@@]2(C)O (some centres undefined) | – | > 25 µM | – | > 25 µM | – | > 25 µM | – | > 25 µM | – | > 25 µM | – | > 25 µM | – | > 25 µM | – | > 25 µM | – | > 25 µM | – | > 25 µM |
| COc1cc(NCCCCCN=C(N)NC(N)=NC(C)C)c2ncccc2c1 | 12.2 µM | 26.6 µM | 13.8 µM | 28.1 µM | 14.8 µM | 31.2 µM | 10.3 µM | 22.3 µM | 0.392 µM | 10.5 µM | 2.45 µM | 12.7 µM | 0.518 µM | 11 µM | 7.52 µM | 24.8 µM | > 100 µM | > 100 µM | 1.04 µM | 4.81 µM |
| COc1ccc(-c2cc(=O)c3c(O)c(OC)c(OC)c(OC)c3o2)cc1 | – | > 100 µM | – | > 27.6 µM | – | > 100 µM | – | > 100 µM | – | > 100 µM | – | > 93.7 µM | – | > 100 µM | – | > 100 µM | – | > 100 µM | – | > 100 µM |
| COc1cc2nccc(Oc3ccc(NC(=O)c4cn(C(C)C)c(=O)n(-c5ccc(F)cc5)c4=O)cc3F)c2cc1OC | > 100 µM | > 100 µM | 1.64 µM | 6.27 µM | 2.69 µM | > 26.3 µM | > 100 µM | > 100 µM | 5.4 µM | > 100 µM | 2.64 µM | 89.2 µM | > 100 µM | > 100 µM | 6.76 µM | > 21.8 µM | > 100 µM | > 100 µM | 7.65 µM | > 77.5 µM |
| CC(C)c1ccc(NC(=O)Cc2ccc(Nc3ncnc4cc(-c5cnn(CCN(C)C)c5)ccc34)cc2)cc1 | 1.63 µM | 3.96 µM | 0.128 µM | > 10 µM | 2.45 µM | > 10 µM | 1.46 µM | 2.83 µM | 1.19 µM | 2.7 µM | 0.795 µM | 4.66 µM | 1.43 µM | 4.73 µM | > 10 µM | > 10 µM | > 10 µM | > 10 µM | > 10 µM | > 10 µM |
| O=C[C@@H](CO)O[C@H](C=O)n1cnc2c(=O)[nH]cnc21 | – | 2010 µM | – | 2150 µM | – | 2050 µM | – | 1450 µM | – | 1270 µM | – | 2390 µM | – | 686 µM | – | 1780 µM | – | 1810 µM | – | 1670 µM |
| COc1cc(C(=O)c2cocc2C(=O)c2ccc3c(c2)OCO3)cc(OC)c1OC | – | 39.7 µM | – | 26.2 µM | – | > 48.4 µM | – | 21.2 µM | – | 24.4 µM | – | 5.27 µM | – | > 74.7 µM | – | 21.1 µM | – | 1.3 µM | – | > 45.7 µM |
| CCn1c2ccccc2c2cc(C(=O)c3ccc(C)c4ccccc34)ccc21 | 0.426 µM | > 100 µM | 0.282 µM | 1.15 µM | 0.729 µM | > 100 µM | 0.435 µM | > 100 µM | 0.344 µM | 14.5 µM | 0.756 µM | > 100 µM | 0.0578 µM | > 100 µM | 1.91 µM | > 100 µM | 0.312 µM | > 100 µM | 39.3 µM | > 100 µM |
| CC1(C)CCC[C@]2(C)c3ccccc3C(=O)CC12 (some centres undefined) | 64.9 µM | > 100 µM | 26 µM | 71.4 µM | 67.4 µM | > 100 µM | 65.7 µM | > 100 µM | 35 µM | > 100 µM | 23.2 µM | 95.3 µM | 75.8 µM | > 100 µM | 22.9 µM | > 100 µM | 20.3 µM | 91.1 µM | 32.5 µM | > 100 µM |
| COC(=O)[C@H](Cc1cn(C)cn1)NC(=O)[C@H](Cc1ccccc1)NC(=O)Nc1cc(C(F)(F)F)cc(C(F)(F)F)c1 | 16.8 µM | 31.9 µM | 15.8 µM | 30.1 µM | 17.2 µM | 33.4 µM | 13.8 µM | 27 µM | 3.1 µM and 3.54 µM | 10.9 µM | 15.1 µM | 45.1 µM | 5.87 µM and 11.4 µM | 28.9 µM | 19.8 µM | 43.8 µM | 23.9 µM | 61.4 µM | 16.1 µM | 30.1 µM |
| COCCNc1cncc(C(N)=O)c1 | – | > 100 µM | – | > 100 µM | – | > 100 µM | – | > 100 µM | – | > 100 µM | – | > 100 µM | – | > 100 µM | – | > 100 µM | – | > 100 µM | – | > 100 µM |
| O=C(/C=C/C12c3ccccc3C(c3ccccc31)C1C(=O)NC(=O)C12)c1ccccc1 (centres undefined) | 1.7 µM | 3.1 µM | 1.42 µM | 2.82 µM | 1.75 µM | 3.59 µM | 1.64 µM | 3.51 µM | 1.35 µM | 2.89 µM | 2.19 µM | 7.68 µM | 2.17 µM | 11.6 µM | 2.28 µM | 6.51 µM | 1.92 µM | 5.73 µM | 1.61 µM | 3.48 µM |
| CNC(=O)c1ccccc1Nc1nc(Nc2ccc3c(c2OC)CCC[C@H](N2CCN(CCO)CC2)C3)ncc1Cl | 1.48 µM and 1.44 µM | 4.24 µM and 5.06 µM | 1.38 µM and 2.22 µM | 3.23 µM and 9.95 µM | 1.16 µM and 1.43 µM | 11.3 µM and > 10 µM | 1.17 µM and 0.888 µM | 14.8 µM and > 10 µM | 1.3 µM and 1.05 µM | 4.24 µM and 3.95 µM | 2.13 µM and 2.4 µM | 16.2 µM and > 10 µM | 2.45 µM and 2.82 µM | 6.75 µM and > 10 µM | 7.65 µM and 2.57 µM | 20.8 µM and > 10 µM | 4.62 µM and 3.01 µM | 17.9 µM and > 10 µM | 1.52 µM and 1.29 µM | 3.87 µM and 3.42 µM |
| O=c1/c(=N\Nc2ccccc2)c2cccc3ccc4cccc1c4c32 | – | > 100 µM | – | > 100 µM | – | 88.6 µM | – | > 100 µM | – | > 100 µM | – | > 100 µM | – | > 100 µM | – | > 100 µM | – | > 100 µM | – | > 100 µM |
